Results from patent US6784201B2, “Benzothiepines having activity as inhibitors of ileal bile acid transport and taurocholate uptake” (G.D. Searle & Company, priority 1994, dated 2004).

Target: T1, human IBAT (Homo sapiens, UniProt Q12908)
T1 construct: expressed in transfected cells; host or cells: Baby hamster kidney (BHK) cells, clone H14
T1 sequence (Q12908 1-348): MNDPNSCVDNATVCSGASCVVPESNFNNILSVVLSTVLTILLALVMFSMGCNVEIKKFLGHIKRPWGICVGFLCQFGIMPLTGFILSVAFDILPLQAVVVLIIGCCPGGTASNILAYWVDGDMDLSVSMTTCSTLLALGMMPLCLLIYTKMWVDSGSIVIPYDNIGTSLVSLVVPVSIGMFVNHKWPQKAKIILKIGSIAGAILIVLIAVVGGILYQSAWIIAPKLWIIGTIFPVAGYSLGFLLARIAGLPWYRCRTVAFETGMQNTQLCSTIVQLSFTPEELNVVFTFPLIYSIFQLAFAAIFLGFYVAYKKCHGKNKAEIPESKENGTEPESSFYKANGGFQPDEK
Test: In vitro assay of IBAT-mediated uptake of [14C]-taurocholate (TC) in H14 cells
Assay type: cell-based
Conditions: read-out: Human TC IC50
Method in brief: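 BHK cells stably expressing human IBAT (H14) were incubated 2 h at 37° C with compound and 3 μM final [14C]-taurocholate in DMEM (4.5 g/L glucose) plus 0.2% fatty acid-free BSA. After cold PBS washes, cell-associated radioactivity was measured by scintillation counting.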

Row | Structure (SMILES) | IC50 [nM]
1 | CCCCC1(CCCC)CS(=O)(=O)c2ccc(N(C)C)cc2C(c2ccccc2)C1O (stereo not drawn) [Example 1162] | 63
2 | CCCCC1(CCCC)CS(=O)(=O)c2ccc(OC)cc2C(c2cccc(N(C)C)c2)C1O (stereo not drawn) [Example 1163] | 90
3 | CCCCC1(CCCC)CS(=O)(=O)c2ccc(OC)cc2C(c2ccncc2)C1O (stereo not drawn) [Example 1164] | 93
4 | CCCCC1(CCCC)CS(=O)(=O)c2ccc([N+](C)(C)C)cc2C(c2ccc(OC)c(F)c2)C1O (stereo not drawn) [Example 1165] | 110
5 | CCCCC1(CCCC)CS(=O)(=O)c2ccc([N+](C)(C)C)cc2C(c2cccc(O)c2)C1O (stereo not drawn) [Example 1166] | 110
6 | C=CCOc1ccc(C2c3cc(N(C)C)ccc3S(=O)(=O)CC(CCCC)(CCCC)C2O)cc1Cl (stereo not drawn) [Example 1167] | 120
7 | CCCCC1(CCCC)CS(=O)(=O)c2ccc([N+](C)(C)C)cc2C(c2ccc(O)cc2)C1O (stereo not drawn) [Example 1168] | 120
8 | CCCCC1(CCCC)CS(=O)(=O)c2cc(N(C)C)ccc2C(c2ccccc2)C1O (stereo not drawn) [Example 1169] | 120
9 | CCCCC1(CCCC)CS(=O)(=O)c2ccc(N(C)C)cc2C(c2ccc(OS(=O)(=O)C(F)(F)F)cc2)C1O (stereo not drawn) [Example 1171] | 140
10 | CCCCC1(CCCC)CS(=O)(=O)c2ccc(OC)cc2C(c2ccncc2)C1O (stereo not drawn) [Example 1172] | 140
11 | CCCCC1(CC)CS(=O)(=O)c2ccc(-c3ccccc3)cc2C(c2cccc(OC)c2)C1O (stereo not drawn) [Example 1174] | 150
12 | CCCCC1(CC)CS(=O)(=O)c2ccc(S(C)(=O)=O)cc2C(c2cccc(OC)c2)C1O (stereo not drawn) [Example 1175] | 170
13 | CCCCC1(CCCC)CS(=O)(=O)c2c(F)cccc2C(c2ccc(F)cc2)C1O (stereo not drawn) [Example 1176] | 180
14 | CCCCN(C)c1ccc2c(c1)C(c1cccc(OC)c1)C(O)C(CCCC)(CCCC)CS2(=O)=O (stereo not drawn) [Example 1177] | 180
15 | CCCCC1(CCCC)CS(=O)(=O)c2ccc(N(C)C)cc2C(c2cccc(OS(=O)(=O)C(F)(F)F)c2)C1O (stereo not drawn) [Example 1178] | 190
16 | CCCCC1(CCCC)CS(=O)(=O)c2cc(OC)ccc2C(c2ccccc2)C1O (stereo not drawn) [Example 1179] | 190
17 | CCCCC1(CCCC)CS(=O)(=O)c2ccc([N+](C)(C)C)cc2C(c2ccccc2)C1O (stereo not drawn) [Example 1180] | 200
18 | CCCCN(C)c1ccc2c(c1)C(c1ccc(F)cc1)C(O)C(CCCC)(CCCC)CS2(=O)=O (stereo not drawn) [Example 1181] | 220
19 | CCCCC1(CCCC)CS(=O)(=O)c2ccc(OC)cc2C(c2ccc(N(C)C)cc2)C1O (stereo not drawn) [Example 1182] | 250
20 | CCCCC1(CCCC)CS(=O)(=O)c2ccc(F)cc2C(c2cccc(OC)c2)C1O (stereo not drawn) [Example 1183] | 280
21 | CCCCC1(CCCC)CS(=O)(=O)c2c(F)cc(F)cc2C(c2ccc(F)cc2)C1O (stereo not drawn) [Example 1184] | 280
22 | CCCCC1(CCCC)CS(=O)(=O)c2ccc(F)cc2C(c2ccc(F)cc2)C1O (stereo not drawn) [Example 1185] | 280
23 | CCCCC1(CCCC)CS(=O)(=O)c2c(F)cc(F)cc2C(c2ccccc2)C1O (stereo not drawn) [Example 1186] | 300

Row | Structure (SMILES) | IC50 [nM]
24 | CCCCC1(CCCC)CS(=O)(=O)c2ccc(C)cc2C(c2ccc(F)cc2)C1O (stereo not drawn) [Example 1187] | 320
25 | CCCCC1(CCCC)CS(=O)(=O)c2ccc([N+](C)(C)C)cc2C(c2ccc(OC)cc2)C1O (stereo not drawn) [Example 1188] | 350
26 | CCCCC1(CCCC)CS(=O)(=O)c2ccc([N+](C)(C)C)cc2C(c2ccc(F)c(F)c2)C1O (stereo not drawn) [Example 1189] | 350
27 | CCCCC1(CCCC)CS(=O)(=O)c2ccc(Br)cc2C(c2ccccc2Br)C1O (stereo not drawn) [Example 1190] | 550
28 | CCCCC1(CCCC)CS(=O)(=O)c2ccc(O)cc2C(c2ccc(N(C)C)cc2)C1O (stereo not drawn) [Example 1191] | 650
29 | CCCCC1(CCCC)CS(=O)(=O)c2ccc(O)cc2C(c2cccc(N(C)C)c2)C1O (stereo not drawn) [Example 1192] | 1000
30 | CCCCC1(CCCC)CS(=O)(=O)c2ccc(N(C)C)cc2C(c2ccc(OCCOCCOCCOc3ccc(C4c5cc(N(C)C)ccc5S(=O)(=O)CC(CCCC)(CCCC)C4O)cc3F)c(F)c2)C1O (stereo not drawn) [Example 1194] | 1600
31 | CCCCC1(CCCC)CS(=O)(=O)c2ccc(N3CCN(C)CC3)cc2C(c2ccc(OC)cc2)C1O (stereo not drawn) [Example 1195] | 1700
32 | CCCCC1(CCCC)CS(=O)(=O)c2ccc(OC)cc2C(c2cccc([N+](C)(C)C)c2)C1O (stereo not drawn) [Example 1196] | 2000
33 | CCCCC1(CC)CS(=O)(=O)c2ccc(N(C)C=O)cc2C(c2ccccc2)C1=O (stereo not drawn) [Example 1197] | 2200
34 | CCCCC1(CCCC)CS(=O)(=O)c2ccc(OC)cc2C(c2cc[n+]([O-])cc2)C1O (stereo not drawn) [Example 1198] | 2500
35 | CCCCC1(CCCC)CS(=O)(=O)c2ccc(N(C)C)cc2C(c2ccc(OCCOCCOCCOc3ccc(C4c5cc(N(C)C)ccc5S(=O)(=O)CC(CCCC)(CCCC)C4O)cc3)cc2)C1O (stereo not drawn) [Example 1199] | 4000
36 | CCCCC1(CCCC)CS(=O)(=O)c2ccc(C)cc2CC1O (stereo not drawn) [Example 1201] | 8300
37 | CCCCC1(CCCC)CS(=O)(=O)c2ccc(OC)cc2C(c2ccc([N+](C)(C)C)cc2)C1O (stereo not drawn) [Example 1202] | 40000
38 | CCCCC1(CCCC)CS(=O)(=O)c2ccc(OC)cc2C(c2ccc(F)cc2)C1O (stereo not drawn) [Example 1204] | 50
39 | CCCCC1(CCCC)CS(=O)(=O)c2ccc(N(C)C)cc2C(c2ccc(OCCOCCOCCI)cc2)C1O (stereo not drawn) [Example 1205] | 34
40 | CCCCC1(CCCC)CS(=O)(=O)c2ccc(N(C)C)cc2C(c2cccc(C[N+](CC)(CC)CC)c2)C1O (stereo not drawn) [Example 1206] | 35
41 | CCCCC1(CCCC)CS(=O)(=O)c2ccc(N(C)C)cc2C(c2cc(Cl)cc(Cl)c2)C1O (stereo not drawn) [Example 1207] | 68
42 | CCCCC1(CCCC)CS(=O)(=O)c2ccc(N(C)C)cc2C(c2ccc(OC)cc2)C1O (stereo not drawn) [Example 1208] | 42
43 | CCCCC1(CCCC)CS(=O)(=O)c2ccc(N(C)C)cc2C(c2ccccc2N(C)C)C1O (stereo not drawn) [Example 1210] | 140
44 | CCCCC1(CC)CS(=O)(=O)c2ccc(N(C)C=O)cc2C(c2ccccc2)C1O (stereo not drawn) [Example 1214] | 750
45 | CCCCC1(CCCC)CS(=O)(=O)c2c(SC)cccc2C(c2ccc(OC)cc2)C1O (stereo not drawn) [Example 1215] | 190
46 | CCCCC1(CCCC)CS(=O)(=O)c2ccc(N(C)C)cc2C(c2ccc(C(=O)O)cc2)C1O (stereo not drawn) [Example 1217] | 320

Row | Structure (SMILES) | IC50 [nM]
47 | CCCCC1(CCCC)CS(=O)(=O)c2c(cccc2S(C)(=O)=O)C(c2ccc(OC)cc2)C1O (stereo not drawn) [Example 1218] | 190
48 | CCCCC1(CCCC)CS(=O)(=O)c2ccc(N(C)C)cc2C(c2ccc(OCCN(C)C)cc2)C1O (stereo not drawn) [Example 1219] | 340
49 | CCCCC1(CCCC)CS(=O)(=O)c2ccc(NC(C)C)cc2C(c2cccc(OC)c2)C1O (stereo not drawn) [Example 1220] | 200
50 | CCCCC1(CCCC)CS(=O)(=O)c2ccc(N(C)C)cc2C(c2ccc(C(=O)OC)cc2)C1O (stereo not drawn) [Example 1221] | 41
51 | CCCCC1(CCCC)CS(=O)(=O)c2ccc(NCC)cc2C(c2cccc(OC)c2)C1O (stereo not drawn) [Example 1222] | 65
52 | CCCCC1(CCCC)CS(=O)(=O)c2cc(Br)c(NC)cc2C(c2ccccc2)C1O (stereo not drawn) [Example 1223] | 280
53 | CCCCC1(CCCC)CS(=O)(=O)c2ccc(F)cc2C(c2cccc([N+](=O)[O-])c2)C1O (stereo not drawn) [Example 1224] | 330
54 | CCCCC1(CCCC)CS(=O)(=O)c2cc(Br)c(N(C)C)cc2C(c2ccc[nH]2)C1O (stereo not drawn) [Example 1228] | 38
55 | CCCCC1(CCCC)CS(=O)(=O)c2ccc(N(C)C)cc2C(c2ccc(O)c(Cl)c2)C1O (stereo not drawn) [Example 1229] | 49
56 | CCCCC1(CCCC)CS(=O)(=O)c2c(cc(F)cc2N(C)C)C(c2ccccc2)C1O (stereo not drawn) [Example 1230] | 62
57 | CCCCC1(CCCC)CS(=O)(=O)c2ccc(N(C)C)cc2C(c2ccc3cc(OC)ccc3c2)C1O (stereo not drawn) [Example 1231] | 75
58 | CCCCC1(CCCC)CS(=O)(=O)c2ccc(N(C)C)cc2C(c2cccc(C[N+](C)(C)CCN(C)C)c2)C1O (stereo not drawn) [Example 1233] | 150
59 | CCCCC1(CCCC)CS(=O)(=O)c2ccc(N(C)C)cc2C(c2cccc(C[N+](C)(C)C)c2)C1O (stereo not drawn) [Example 1234] | 67
60 | CCCCC1(CCCC)CS(=O)(=O)c2ccc(N(C)C)cc2C(c2cccc(OCCN(CC)CC)c2)C1O (stereo not drawn) [Example 1235] | 45
61 | CCCCC1(CCCC)CS(=O)(=O)c2ccc(N(C)C)cc2C(c2ccc(CBr)cc2)C1O (stereo not drawn) [Example 1236] | 50
62 | CCCCC1(CCCC)CS(=O)(=O)c2ccc(N(C)C)cc2C(c2ccc(OCC[N+](C)(C)CCOCCOCC[N+](C)(C)C)cc2)C1O (stereo not drawn) [Example 1237] | 70
63 | C=COCCOCCOCCOc1ccc(C2c3cc(N(C)C)ccc3S(=O)(=O)CC(CCCC)(CCCC)C2O)cc1F (stereo not drawn) [Example 1238] | 800
64 | CCCCC1(CCCC)CS(=O)(=O)c2ccc(N(C)C)cc2C(c2ccc(OCCOCCBr)c(F)c2)C1O (stereo not drawn) [Example 1239] | 35
65 | CCCCC1(CCCC)CS(=O)(=O)c2ccc(N(C)C)cc2C(c2ccc(OC)c(C)c2)C1O (stereo not drawn) [Example 1240] | 16
66 | CCCCC1(CCCC)CS(=O)(=O)c2ccc(N(C)C)cc2C(c2cccc(CN(C)C)c2)C1O (stereo not drawn) [Example 1241] | 47
67 | CCCCC1(CCCC)CS(=O)(=O)c2ccc(N(C)C)cc2C(c2ccc(OCCOCCOCCOCCCl)c(F)c2)C1O (stereo not drawn) [Example 1242] | 29
68 | CCCCC1(CCCC)CS(=O)(=O)c2ccc(N(C)C)cc2C(c2ccc(O)c(C[N+](C)(C)C)c2)C1O (stereo not drawn) [Example 1243] | 630
69 | CCCCC1(CCCC)CS(=O)(=O)c2ccc(N(C)C)cc2C(c2cccc([N+](C)(C)C)c2)C1O (stereo not drawn) [Example 1245] | 320
